Assay results: patent US20120064219A1, “EXTRUDED PARTICLES” (Firmenich SA, priority 2009, published 2012)
Peptide text beside a SMILES is read from it.

Assay: LC-MS analysis of saliva samples of panelists chewing the gums
Assay type: in vivo
Description: 3 panelists were given various samples of chewing gum prepared above and instructed to chew the gums for 60 minutes. At various intervals, a saliva sample was taken from each panelist, diluted 50 times in water and then analysed by standard LC-MS to confirm the amount of sweetening component remaining in the mouth.

[1] = encapsulated form in chewing gum

release profile in saliva (in words) (unencapsulated form in chewing gum)	effect of encapsulation on the release profile compared to the unencapsulated form (chewing gum, saliva)	SMILES	release profile in saliva (in words) [1]
diminishes rapidly almost immediately	–	OC[C@H]1O[C@H](O[C@]2(CCl)O[C@H](CCl)[C@@H](O)[C@@H]2O)[C@H](O)[C@@H](O)[C@H]1Cl [sucralose]	remains remarkably stable for at least until 20 minutes
–	–	COC(=O)[C@H](Cc1ccccc1)NC(=O)[C@@H](N)CC(=O)O [aspartame] (H-Asp-Phe-OMe)	releasing at a surprisingly stable rate for up to 40 minutes
–	little effect	CC1=CC(=O)[N-]S(=O)(=O)O1.[K+] [Acesulfame K]	–
